Test results: US5364885A, “Reduction of hair growth” (priority 1992, dated 1994)
Where a name gives a salt, the structure may show the parent alone. Read-outs that look alike come from different tables or passages of the source.

How the values were obtained:
[1] = system: hamster flank organ hair growth; assay: Inhibition of hair growth: hamster flank organ hair mass after thirteen topical applications; type: in vivo, male intact Golden Syrian hamsters; settings: 13 applications; for inhibition at 5 % strength / inhibition at 10 % strength / inhibition at 20 % strength / inhibition at 30 % strength: Mesocricetus auratus, pH 7-8, read-out: % Inhibition (± SEM)
Method: A vehicle or carrier was prepared having the following composition:
A group of male intact Golden Syrian hamsters was provided. These animals were considered acceptable models for human beard hair growth in that they display oval shaped flank organs, one on each side, each about 8 mm. in major diameter, which grow thick black and coarse hair similar to human beard hair. These organs produce hair in response to androgens in the hamster. The flank organs of each hamster were depilated by applying a thioglycolate based chemical depilatory (Surgex), and to one organ of each animal was applied 10-25 μl. of vehicle alone once a day, while to the other organ of each animal was applied an equal amount of vehicle containing the analog. After thirteen applications (one application per day for five days a week), the flank organs were shaved and the amount of recovered hair (hair mass) from each was weighed. Percent-reduction of hair growth was calculated by subtracting the hair mass (mg) value of the test compound treated side from the hair mass value of the vehicle treated side; the delta value obtained was then divided by the hair mass value of the vehicle treated side, and the resultant number was multiplied by 100.

hamster flank organ = settings: topical; cited from earlier work
hair growth = settings: intact males; Table 3, Group VI vs. Group X; cited from earlier work
sebum excretion = settings: topical, cited from earlier work
animal sebaceous glands = settings: female vs male; cited from earlier work
[2] = 5% by weight, 10-25 μl once a day, pH 7-8
[3] = 10% by weight, 10-25 μl once a day, pH 7-8
[4] = 20% by weight, 10-25 μl once a day, pH 7-8
[5] = 30% by weight, 10-25 μl once a day, pH 7-8
[6] = 5% by weight, 10-25 μl once a day, vs vehicle treated side
[7] = 10% by weight, 10-25 μl once a day, vs vehicle treated side
[8] = 20% by weight, 10-25 μl once a day, vs vehicle treated side
[9] = 30% by weight, 10-25 μl once a day, vs vehicle treated side

Row | Compound | Hamster Flank Organ Hair Mass, Treated (± SEM) [1, 2] | Hamster Flank Organ Hair Mass, Treated (± SEM) [1, 3] | Hamster Flank Organ Hair Mass, Treated (± SEM) [1, 4] | Hamster Flank Organ Hair Mass, Treated (± SEM) [1, 5] | inhibition at 5 % strength [1, 6] | inhibition at 10 % strength [1, 7] | inhibition at 20 % strength [1, 8] | inhibition at 30 % strength [1, 9] | reduction in hair growth of the hamster flank organ (hamster flank organ) | reduction in the size of the flank organ (hamster flank organ) | Hamster Flank Organ Hair Mass, Treated (± SEM) ([1]; 10% comparison composition, pH 4.0) | % Inhibition (± SEM) ([1]; 10% comparison composition, vs vehicle treated side, pH 4.0) | effect on inhibition of hair growth (hair growth) | reducing sebum excretion rates (sebum excretion; females) | reducing sebum excretion rates (sebum excretion; males) | inhibition of testosterone metabolism and lipogenesis in sebaceous glands (animal sebaceous glands)
1 | CC(C)(CO)C(O)C(=O)NCCCO (racemic) [DL-PTYA, D, or DL, Pantothenyl alcohol] | 2.670 ± .23 mg | 1.490 ± .30 mg | 1.450 ± .21 mg | .708 ± .13 mg | -8.28 ± 7.51% | 40.3 ± 7.35% | 51.1 ± 7.49% | 70.8 ± 5.95% |  |  |  |  |  |  |  | 
2 | CCC[C@]1(O)CC[C@H]2[C@@H]3CCC4=CC(=O)CC[C@]4(C)[C@H]3CC[C@@]21C [17β-hydroxy-17α-propylandrost-4-en-3-one] |  |  |  |  |  |  |  |  | substantial reduction in hair growth | reduction in the size of the flank organ |  |  |  |  |  | 
3 | CC(C)(CO)[C@@H](O)C(=O)NCCCO [D-PTYA, D, or DL, Pantothenyl alcohol] | 1.069 ± .15 mg | 1.095 ± .32 mg | .899 ± .30 mg | 1.069 ± .26 mg | 55.9 ± 4.32% | 48.3 ± 11% | 31.4 ± 13.8% | 34.8 ± 8.49% |  |  |  |  |  |  |  | 
4 | NCCC[C@](N)(C(=O)O)C(F)F [DFMO, α-difluoromethyl ornithine, reference compound] |  |  |  |  |  |  |  |  |  |  | .631 ± .12 mg | 66.10 ± 7.05% |  |  |  | 
5 | CC(C)(CO)[C@@H](O)C(=O)NCCC(=O)O [PTA, DPantothenic acid hemicalcium salt] | .738 ± .13 mg | .424 ± .11 mg | .270 ± .12 mg | .160 ± .06 mg | 67.3 ± 5.81% | 71.3 ± 8.96% | 85.8 ± 5.75% | 92.7 ± 2.76% |  |  |  |  |  |  |  | 
6 | CC(C)(CO)[C@H](O)C(=O)NCCC(=O)[O-].[Na+] [PTAss, D-Pantothenic acid monosodium salt] | .644 ± .15 mg | .364 ± .10 mg | .500 ± .10 mg | .396 ± .95 mg | 72.6 ± 5.18% | 80.1 ± 4.38% | 74.2 ± 4.83% | 79.8 ± 4.75% |  |  |  |  |  |  |  | 
7 | CC(=O)[C@H]1CC[C@H]2[C@@H]3CCC4=CC(=O)CC[C@]4(C)[C@H]3CC[C@]12C [progesterone] |  |  |  |  |  |  |  |  |  |  |  |  | doubtful | effective in reducing sebum excretion rates in females | without effect in males | effective in the female but not in the male
